This note sets out measurements from patent US5705630A, “2'-methylidenepyrimidine nucleoside compounds” (Yoshitomi Pharmaceutical Industries, Ltd., priority 1988, dated 1998).

The data set is described as follows: solubility (general statement). Type of data set: physicochemical. The conditions noted are these: with respect to pharmaceutical production.

The structures appear in SMILES notation.

Regarding `C=C1[C@H](n2ccc(N)nc2=O)O[C@H](CO)[C@H]1O` [2'-deoxy-2'-methylidenecytidine], the solubility result is given as “inferior in solubility”.
